For ten compounds, Ki and Activity results are on record in ChEMBL document CHEMBL1146899, “Redefining the structure-activity relationships of 2,6-methano-3-benzazocines. 4. Opioid receptor binding properties of 8-[N-(4'-phenyl)-phenethyl)carboxamido] analogues of cyclazocine and ethylketocycalzocine” (J Med Chem, 2006).

The source made the active and inactive calls. No cut-off for these calls is given here.

Assay [1] concerns the target Delta-type opioid receptor (Homo sapiens, UniProt P41143). Description: Displacement of [3H]naltrindole from human delta opioid receptor expressed in CHO cells. It is filed as cell-based.
Assay [2] deals with Kappa-type opioid receptor (Homo sapiens, UniProt P41145). Nature of the assay: biochemical. It counts as cell-based, CHO.
Kappa-type opioid receptor, sequence (P41145 whole entry): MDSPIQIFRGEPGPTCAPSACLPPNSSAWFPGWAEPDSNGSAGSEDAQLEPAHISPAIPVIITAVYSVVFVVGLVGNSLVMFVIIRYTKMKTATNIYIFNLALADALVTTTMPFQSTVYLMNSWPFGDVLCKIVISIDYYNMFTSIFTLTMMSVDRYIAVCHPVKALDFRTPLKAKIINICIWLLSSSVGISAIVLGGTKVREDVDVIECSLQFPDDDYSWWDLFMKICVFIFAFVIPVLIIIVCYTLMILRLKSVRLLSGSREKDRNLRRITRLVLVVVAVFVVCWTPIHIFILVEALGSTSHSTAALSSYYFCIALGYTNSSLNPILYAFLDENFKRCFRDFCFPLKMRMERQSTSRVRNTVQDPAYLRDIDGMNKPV
Description: Displacement of [3H]U-69593 from human kappa opioid receptor expressed in CHO cells
The target of assay [3] is Mu-type opioid receptor (Homo sapiens, UniProt P35372). Nature of the assay: Displacement of [3H]DAMGO from human mu opioid receptor expressed in CHO cells. It counts as cell-based.
Mu-type opioid receptor, sequence (P35372 whole entry): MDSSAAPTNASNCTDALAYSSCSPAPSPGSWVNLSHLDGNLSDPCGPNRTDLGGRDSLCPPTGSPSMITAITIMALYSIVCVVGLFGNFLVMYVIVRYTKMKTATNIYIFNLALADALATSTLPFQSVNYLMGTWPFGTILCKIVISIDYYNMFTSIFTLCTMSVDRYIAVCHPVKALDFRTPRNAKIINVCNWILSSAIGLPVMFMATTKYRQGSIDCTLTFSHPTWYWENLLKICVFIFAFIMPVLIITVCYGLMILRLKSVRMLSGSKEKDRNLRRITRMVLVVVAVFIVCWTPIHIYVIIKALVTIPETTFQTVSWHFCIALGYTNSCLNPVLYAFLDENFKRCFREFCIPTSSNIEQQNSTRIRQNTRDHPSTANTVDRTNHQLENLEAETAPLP
For assay [4], the system named is Mus musculus. Nature of the assay: Antinociceptive activity in mouse at 1 mg/kg, ip. More on the design: dose 1 mg/kg. It is filed as functional, organism-based.

Delta-type opioid receptor, sequence (P41143 whole entry): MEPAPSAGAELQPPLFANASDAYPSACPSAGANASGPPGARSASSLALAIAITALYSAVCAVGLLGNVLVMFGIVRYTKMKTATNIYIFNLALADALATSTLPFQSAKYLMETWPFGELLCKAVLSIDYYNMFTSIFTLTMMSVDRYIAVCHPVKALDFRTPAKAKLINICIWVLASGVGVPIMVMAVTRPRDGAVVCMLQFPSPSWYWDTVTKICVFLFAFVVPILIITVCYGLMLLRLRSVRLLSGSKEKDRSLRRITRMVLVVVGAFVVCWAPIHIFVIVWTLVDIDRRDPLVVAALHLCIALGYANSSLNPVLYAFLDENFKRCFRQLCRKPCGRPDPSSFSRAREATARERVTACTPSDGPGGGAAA

Turning to `C[C@H]1C2Cc3ccc(C(=O)NCCCc4ccccc4)cc3[C@@]1(C)CCN2CC1CC1` (mixture of isomers), the Ki in assay [1] amounted to 47 nM; in assay [2], 3 nM; in assay [3], 2.5 nM.

On to `CC[C@@]12CCN(CC3CC3)C(C(=O)c3ccc(C(=O)NCCc4ccc(-c5ccccc5)cc4)cc31)[C@@H]2C` (mixture of isomers), for which the Ki in assay [1] amounted to 3.9 nM; in assay [2], 1.3 nM; in assay [3], 3.1 nM.

`CC[C@@]12CCN(CC3CC3)C(C(=O)c3ccc(C(N)=O)cc31)[C@@H]2C`: the inhibition constant Ki in assay [1] turned out to be 23 nM; in assay [2], 0.47 nM; in assay [3], 2.1 nM.

Take `C[C@H]1C2Cc3ccc(C(=O)NCCc4ccccc4)cc3[C@@]1(C)CCN2CC1CC1` (mixture of isomers): the values for the Ki in assay [1], in assay [2] and in assay [3] were 59 nM, 1.7 nM and 3.5 nM, respectively.

Turning to `C[C@H]1C2Cc3ccc(C(N)=O)cc3[C@@]1(C)CCN2CC1CC1`, in assay [4], the outcome was Active. The same compound yielded a Ki in assay [1] of 5.2 nM.

Consider `C[C@H]1C2Cc3ccc(C(=O)Nc4ccc(-c5ccccc5)cc4)cc3[C@@]1(C)CCN2CC1CC1` (mixture of isomers), for which the values for the Ki in assay [1], in assay [2] and in assay [3] were 110 nM, 27 nM and 18 nM, respectively.

`C[C@H]1C2Cc3ccc(C(=O)N(C)CCc4ccc(-c5ccccc5)cc4)cc3[C@@]1(C)CCN2CC1CC1` (racemic): the Ki came to 12 nM in assay [1], 11 nM in assay [2] and 6.7 nM in assay [3].

For `C[C@H]1C2Cc3ccc(C(=O)Nc4ccccc4)cc3[C@@]1(C)CCN2CC1CC1`, the inhibition constant (Ki) in assay [1] stood at 2100 nM; in assay [2], 270 nM; in assay [3] it was 840 nM.

Regarding `C[C@H]1C2Cc3ccc(C(=O)NCc4ccccc4)cc3[C@@]1(C)CCN2CC1CC1` (mixture of isomers), the Ki stood at 210 nM in assay [1], 36 nM in assay [2] and 27 nM in assay [3].

In the case of `C[C@H]1C2Cc3ccc(C(=O)NCc4ccc(-c5ccccc5)cc4)cc3[C@@]1(C)CCN2CC1CC1` (mixture of isomers), the figures for the Ki in assay [1], in assay [2] and in assay [3] were 170 nM, 26 nM and 11 nM, respectively.
